Experimental data as given in patent US12435091B2, “RNA-binding protein multimerization inhibitors and methods of use thereof” (THE UAB RESEARCH FOUNDATION, priority 2020, dated 2025).
≈ marks a conversion by molar mass, not a printed value. Read-outs that look alike come from different tables or passages of the source.

Experiments:
[1] = aqueous solubility at pH 7.4; type: physicochemical; conditions: aqueous medium at pH 7.4, pH 7.4, aqueous buffer; read-out: Sol @ pH 7.4
Description: (§5) Selected compounds were assessed for their aqueous solubility, Log D and mouse and human liver microsomal stability.

[2] = test system: PDGx neurosphere cell lines (JX12p, X14P, XD456, X1524, and JX22p); assay: RNA-Seq analysis and gene ontology enrichment across all PDGx neurosphere cell lines; type: cell-based; conditions: 3 uM for 12 hours, in four of five neurosphere cell lines
Description: Illumina global RNA-sequencing data were generated by utilizing PDGx neurospheres, which have been treated with a compound as described herein (e.g., SRI-42127, 3 uM) for 12 hours or with vehicle as the control. RNA was isolated by using TRIzol reagent (Invitrogen; Carlsbad, CA). The RNA samples were processed.
The RNA-Sequencing data was generated using glioma neurospheres representing the different molecular subtypes (classical, neuronal, and mesenchymal) in the control (treatment with vehicle) and after treatment with SRI-42127, 3 uM for 12 hours. First, analysis of direct HuR mRNA targets and their corresponding cell signaling pathways was performed by using gene sets, which have been defined as the direct HuR targets following tumor neurosphere treatment with DHTS compound, an established modulator of the HuR/mRNA interaction.
Significant down-regulation of the pathways responsible for i) cell cycle progression, ii) DNA replication, iii) transport mature transcript to cytoplasm, iv) DNA strand elongation, v) capped intron-containing pre-mRNA processing, vi) DNA repair, vii) unwinding of DNA, viii) alpha-linolenic (omega 3) and linoleic (omega 6) metabolism, ix) chromosome maintenance, x) messenger RNA splicing was observed. It is established that HuR can control the centrosome and microtubule organizing center in cancer cells. […]

spinal cord injury = assay: mid-thoracic contusion spinal cord injury in mice; type: in vivo
Description: Wild-type male mice were subjected to a mid-thoracic contusion injury and then treated with SRI-42127 (15 mg/kg) every 8 hours for 4 days, starting 1 hour after injury. […] Not to be bound by theory, similar to spinal cord injury, chronic pain signaling is triggered by activation of microglia and astroglia in the spinal cord and production of inflammatory mediators (e.g. TNF-α, IL-1β, IL-6, INOS, CCL2) that induce hyperexcitation of sensory neurons in the dorsal horn. Mice underwent sciatic nerve lesioning to produce a spared nerve injury and then received SRI-42127 (15 mg/kg) or vehicle every 6 hours for 4 days (starting 1 h after injury). Mechanical sensitivity was assessed at day 7 post-injury. […] Following this test, a subset of mice in the DMSO-treated group was given an acute administration of SRI-42127 (or DMSO) and their mechanical sensitivity was tested at 30 minutes and 60 minutes post-administration. Acute treatment with SRI-42127 reversed allodynia in these mice for at least 60 minutes (p<0.01, FIG. 21, Panel D).

microglia = assay: PrestoBlue cell viability assay in microglia; type: cell-based, mouse; conditions: tested dose range (up to 1 μM)
[3] = test system: PDGx XD456 glioma cell line; assay: PrestoBlue cell viability assay; type: cell-based
Description: (§1) PrestoBlue cell viability reagent (ThermoFisher Scientific; Waltham, MA) was used for cell viability assays. The inhibitory dose-response data were normalized to the control (treatment with vehicle); the inhibitory dose-response curves, which were fitted by using Boltzmann equation, and the corresponding IC50s were generated by using OriginPro software (OriginLab Corporation, CA).
(§2) The glioma suppressive potentials of the new class of HuR multimerization inhibitors were evaluated by utilizing SRI-41664 and SRI-42127 compounds in several cell-based assays. First, it was confirmed that the SRI-41664 and SRI-42127 compounds are cytotoxic for established and PDGx cell lines. FIG. 5A illustrates the inhibitory dose responses of SRI-41664 and SRI-42127 compounds in the established U251, LN229, and the PDGx XD456 glioma cell lines. […] An HuR-overexpression approach was employed to confirm SRI-42127 inhibitory potency against HuR dimerization.

U251 glioma cell line = assay: PrestoBlue cell viability assay; type: cell-based; conditions: Homo sapiens, U-251, 48 h
Description: as §1, §2

LN229 glioma cell line = assay: PrestoBlue cell viability assay; type: cell-based; conditions: Homo sapiens, LN-229; LN229, 48 hours of treatment
Description: as §1, §2

AAK1 = AAK1 (Homo sapiens, UniProt Q2M2I8); assay: SelectScreen kinase profiling, LanthaScreen Binding
Description: The kinase inhibitory potentials of compounds as described herein (e.g., SRI-42127 and SRI-41664) were evaluated by ThermoFisher Scientific's SelectScreen™ Kinase Profiling Service. The following kinase inhibitory assays were utilized: ZLYTE (Madison, WI) for NTRK1, PIM1, and cMET kinases; LanthaScreen Binding (Madison, WI) for AAK1 kinase; and Adapta (Madison, WI) for IRAK1 kinase.

in vitro = conditions: human, liver microsomes
Description: as §5

XD456 cell line = assay: soft agar colony formation assay; type: cell-based; conditions: 3 uM
Description: (§3) The soft agar colony formation assay was performed by using 0.9% and 0.45% agarose for the bottom and the top layers, respectively; cells were incorporated in the top layer. Seaplaque low-melting temperature agarose was purchased from Lonza (Rockland, ME). Five hundred cells per well were utilized in both, the soft agar and the attached colony formation assays, which were performed in 6 well plates; cells were treated with vehicle as the control or with the desired drugs, which were administered twice per week for three weeks. The Crystal violet solution (0.1%) was utilized for colony staining in both assays. The colonies were counted after three weeks of treatment; the plate images were obtained by using Amersham Imager-600 reader (Piscataway, NJ).
(§4) Graphs in FIG. 8D illustrate the average numbers of colonies formed by established U251 and PDGx XD456 cell lines in the attached cell colony formation assay and in the soft agar colony formation assay, which represents anchorage independent cell growth.

U251 cell line = assay: soft agar colony formation assay; type: cell-based; conditions: 3 uM
Description: as §3, §4

Sequence of AAK1 (Q2M2I8 whole entry): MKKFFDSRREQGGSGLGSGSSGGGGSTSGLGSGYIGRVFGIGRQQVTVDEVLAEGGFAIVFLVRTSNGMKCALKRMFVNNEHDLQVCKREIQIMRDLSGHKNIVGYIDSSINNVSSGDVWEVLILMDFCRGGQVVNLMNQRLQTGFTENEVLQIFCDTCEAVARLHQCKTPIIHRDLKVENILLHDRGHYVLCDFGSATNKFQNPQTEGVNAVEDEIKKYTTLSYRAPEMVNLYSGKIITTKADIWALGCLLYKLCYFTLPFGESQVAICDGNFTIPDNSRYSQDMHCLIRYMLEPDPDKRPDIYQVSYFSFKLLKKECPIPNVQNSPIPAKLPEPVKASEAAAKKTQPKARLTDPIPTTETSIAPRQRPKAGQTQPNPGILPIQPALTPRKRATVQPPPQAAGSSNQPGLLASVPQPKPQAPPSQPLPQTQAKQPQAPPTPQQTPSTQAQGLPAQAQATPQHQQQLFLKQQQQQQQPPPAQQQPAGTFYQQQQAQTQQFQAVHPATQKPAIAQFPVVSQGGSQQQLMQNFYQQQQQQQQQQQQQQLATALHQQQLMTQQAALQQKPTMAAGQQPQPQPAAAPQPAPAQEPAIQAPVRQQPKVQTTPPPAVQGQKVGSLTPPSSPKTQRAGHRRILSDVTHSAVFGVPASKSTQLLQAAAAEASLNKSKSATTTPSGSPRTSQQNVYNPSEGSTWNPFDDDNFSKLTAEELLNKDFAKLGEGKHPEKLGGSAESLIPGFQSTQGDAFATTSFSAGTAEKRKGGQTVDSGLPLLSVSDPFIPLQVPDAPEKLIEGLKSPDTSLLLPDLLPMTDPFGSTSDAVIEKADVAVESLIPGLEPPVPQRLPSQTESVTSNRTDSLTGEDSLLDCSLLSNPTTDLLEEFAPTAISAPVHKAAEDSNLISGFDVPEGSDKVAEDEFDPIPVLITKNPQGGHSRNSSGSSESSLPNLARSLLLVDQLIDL

In the case of `CN(c1ccc2ncc(-c3ccc4cn[nH]c4c3)n2n1)C1CCOCC1` [Compound 19], the solubility [1] is reported as 2.4 µM (≈ 0.836 µg/mL), the “up-regulation of Tubb2A transcript” value [2] is reported as “more than 2 folds” and the “increase in surviving neurons in the epicenter of injury” value (spinal cord injury; 15 mg/kg every 8 hours for 4 days, stereology 2 weeks post injury) is reported as greater than 2 fold. For the same compound, the “increase in neuronal counts by stereology” value (spinal cord injury; 4 weeks post SCI (FIG. 21, Panel B)) was greater than 50%, the toxicity to microglia (microglia) was “did not cause toxicity” and the IC50 ([3]; Glioma cell, XD456, 48 hours of treatment) was 4 ± 0.6 µM. The “increase of IC50 for inhibition of cell viability” value ([3]; XD456, enhancement of HuR-dimer formation approximately by two-fold, 48 hours) was 1.9±0.2 fold, the IC50 (U251 glioma cell line; U251, 48 hours of treatment, read-out: IC50 cell viability) was 2.8 ± 0.6 µM and the IC50 (U251 glioma cell line; U251 with dox-inducible HuR-dimerization reporters, after enhancement of HuR-dimer formation by two fold, 48 hours, read-out: IC50 for inhibition of cell viability) was 8 ± 0.8 µM. It also gave an IC50 (U251 glioma cell line; U251 with dox-inducible HuR-dimerization reporters, before enhancement of HuR-dimer formation, 48 hours, read-out: IC50 for inhibition of cell viability) of 2.8 ± 0.4 µM, an IC50 (LN229 glioma cell line) of 3.2 ± 0.6 µM and an IC50 (AAK1) of 0.12 µM. The half-life (in vitro) was 8.6 min, the number of colonies (XD456 cell line) was 39+6 and the number of colonies (U251 cell line) was 90+70.
